Experimental findings from PubChem BioAssay (NCI) are described below.

Values joined by “and” are separate entries in the source; they are usually repeats but may differ in a detail not shown here. Equal values may be shown once.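 Test compounds were applied to cells in 96-well plates for 48 hours at 5 doses. GI50 is the concentration that inhibits growth by half. TGI denotes the concentration required for complete inhibition of growth.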

Among the test systems are 786-0 renal; HOP-62 NSCLC; SN12C renal; UO-31 renal; RPMI-8226 leukemia; MOLT-4 leukemia; DU-145 prostate; NCI-H522 lung; OVCAR-4 ovarian; MDA-MB-435.
Common to all, as to test: growth of human tumour cells (NCI), 48 h

In the case of `CCOC(=O)c1cn2ncnc(Oc3ccc(NC(=O)NCCN(CC)CC)c(Cl)c3)c2c1C`, the GI50 is 1.89 µM in the test with 786-0 renal; 12 µM with HOP-62 NSCLC; 3.34 µM with SN12C renal; 1.55 µM in the test with UO-31 renal; 1.73 µM with RPMI-8226 leukemia; 2.36 µM with MOLT-4 leukemia. In addition, the GI50 with DU-145 prostate was 7.1 µM; in the test on NCI-H522 lung it was 2.3 µM; in the test with OVCAR-4 ovarian it was 12.2 µM; in the test on MDA-MB-435 it was 1.87 µM. Moreover, the TGI is 3.75 µM in the test with 786-0 renal; 29.5 µM in the test with HOP-62 NSCLC; 13.3 µM in the test with SN12C renal; 3.19 µM in the test with UO-31 renal; 3.92 µM in the test on RPMI-8226 leukemia; 5.67 µM in the test on MOLT-4 leukemia. In addition, the TGI in the test on DU-145 prostate was determined as 55.1 µM; with NCI-H522 lung it was 5.92 µM; in the test with OVCAR-4 ovarian, 45.5 µM; with MDA-MB-435, 3.51 µM.

Regarding `O=C1C(Nc2cccc(O)c2)=C(Sc2ccc(Cl)cc2)C(=O)N1Cc1ccccc1`, the GI50 with 786-0 renal was 17.8 µM; with HOP-62 NSCLC, 15.8 µM; in the test on SN12C renal it was 15.8 µM; in the test on UO-31 renal, 7.93 µM; in the test on RPMI-8226 leukemia it was 2.23 µM; in the test with MOLT-4 leukemia it was 3.05 µM. In addition, the GI50 is 12 µM in the test on DU-145 prostate, 21.3 µM in the test with NCI-H522 lung, 14.1 µM in the test with OVCAR-4 ovarian and 6.43 µM in the test on MDA-MB-435. The TGI with 786-0 renal was 50 µM; with HOP-62 NSCLC, 35.7 µM; in the test on SN12C renal it was 55.1 µM; in the test on UO-31 renal it was greater than 100 µM; in the test on RPMI-8226 leukemia, 7.42 µM; with MOLT-4 leukemia, 28.3 µM. Besides, the TGI with DU-145 prostate was 33.3 µM; in the test on NCI-H522 lung, greater than 100 µM; in the test with OVCAR-4 ovarian it was greater than 100 µM; with MDA-MB-435, 20 µM.

Consider `Cc1cc(S(=O)(=O)Nc2nc3ccsc3c(=O)n2Cc2ccccc2)c(S)cc1Cl`, for which the GI50 was 32.2 µM in the test with 786-0 renal; 22.7 µM with HOP-62 NSCLC; 31.1 µM in the test with SN12C renal; 86 µM in the test on UO-31 renal; 33.4 µM in the test on RPMI-8226 leukemia; 37.9 µM in the test on MOLT-4 leukemia. Moreover, the GI50 was 34.6 µM in the test on DU-145 prostate, 37 µM in the test on NCI-H522 lung, 44 µM in the test on OVCAR-4 ovarian and 29.3 µM in the test on MDA-MB-435. For the same compound, the TGI is greater than 100 µM in the test with 786-0 renal; 46.6 µM in the test on HOP-62 NSCLC; 58.8 µM in the test on SN12C renal; greater than 100 µM in the test with UO-31 renal; greater than 100 µM with RPMI-8226 leukemia; greater than 100 µM with MOLT-4 leukemia. The TGI with DU-145 prostate is greater than 100 µM; with NCI-H522 lung, greater than 100 µM; with OVCAR-4 ovarian, greater than 100 µM; in the test on MDA-MB-435, 91.6 µM.

`Cc1ccc(C(=O)Nc2ccccc2C(=O)N/N=C(\c2ccccc2)c2ccccn2)cc1`: the GI50 in the test with 786-0 renal was 0.362 µM; in the test with HOP-62 NSCLC it was 0.27 µM; with SN12C renal, 0.76 µM; with UO-31 renal, 0.107 µM; in the test with RPMI-8226 leukemia, 1.13 µM; with MOLT-4 leukemia, 0.374 µM. The GI50 in the test with DU-145 prostate was 0.434 µM; in the test on NCI-H522 lung, 0.582 µM; in the test with OVCAR-4 ovarian, 0.157 µM; in the test with MDA-MB-435 it was 0.534 µM. Also, the TGI with 786-0 renal is greater than 100 µM; with HOP-62 NSCLC, greater than 100 µM; with SN12C renal, greater than 100 µM; in the test on UO-31 renal, 2.66 µM; in the test with RPMI-8226 leukemia, greater than 100 µM; in the test on MOLT-4 leukemia, greater than 100 µM. For the same compound, the TGI with DU-145 prostate, with NCI-H522 lung, in the test on OVCAR-4 ovarian and in the test on MDA-MB-435 was greater than 100 µM in each case.

As for `CCCCCCCCCCC(CN(CC)CC)C(O)c1ccccc1` (centres undefined), the GI50 in the test on 786-0 renal was 1.67 µM; in the test with SN12C renal, 2.11 µM; in the test on UO-31 renal, 1.56 µM; in the test with RPMI-8226 leukemia it was 2.05 µM; in the test with MOLT-4 leukemia it was 2.25 µM; in the test with DU-145 prostate it was 1.89 µM. The GI50 with NCI-H522 lung is 1.83 µM; in the test on OVCAR-4 ovarian, 1.63 µM; with MDA-MB-435 it was 1.72 µM. In addition, the TGI turned out to be 3.15 µM in the test with 786-0 renal; 5.69 µM in the test on SN12C renal; 3.1 µM in the test with UO-31 renal; 4.88 µM in the test on RPMI-8226 leukemia; 5.8 µM in the test with MOLT-4 leukemia; 3.49 µM in the test on DU-145 prostate. Besides, the TGI in the test on NCI-H522 lung turned out to be 3.8 µM; with OVCAR-4 ovarian, 3.45 µM; with MDA-MB-435, 3.23 µM.

In the case of `O=C1/C(=C/c2ccc(C(F)(F)F)cc2)COc2ccc(O)cc21`, the GI50 was 1.91 µM with 786-0 renal; 12.8 µM in the test with HOP-62 NSCLC; 1.73 µM with SN12C renal; 1.26 µM in the test on UO-31 renal; 0.29 µM in the test on RPMI-8226 leukemia; 2.33 µM in the test with MOLT-4 leukemia. Moreover, the GI50 in the test on DU-145 prostate is 3.23 µM; with NCI-H522 lung, 1.59 µM; with OVCAR-4 ovarian, 3.4 µM; in the test with MDA-MB-435 it was 2.41 µM. Further, the TGI in the test on 786-0 renal came out at 4.17 µM; in the test on HOP-62 NSCLC it was 25.4 µM; with SN12C renal, 3.46 µM; in the test with UO-31 renal it was 2.67 µM; in the test on RPMI-8226 leukemia, 0.885 µM; in the test with MOLT-4 leukemia it was 21.2 µM. For the same compound, the TGI in the test on DU-145 prostate turned out to be 12 µM; in the test on NCI-H522 lung it was 3.69 µM; in the test on OVCAR-4 ovarian it was 13 µM; in the test with MDA-MB-435, 6.54 µM.

For the compound `CN1CCN(c2ccc([N+](=O)[O-])c3no[n+]([O-])c23)CC1`, the GI50 was 0.298 µM with 786-0 renal; 0.318 µM in the test on HOP-62 NSCLC; 0.357 µM in the test on SN12C renal; 0.189 µM in the test on UO-31 renal; 0.436 µM in the test with RPMI-8226 leukemia; 0.0645 µM in the test on MOLT-4 leukemia. For the same compound, the GI50 was 0.302 µM in the test with DU-145 prostate, 0.115 µM in the test with NCI-H522 lung, 0.444 µM with OVCAR-4 ovarian and 0.642 µM in the test with MDA-MB-435. For the same compound, the TGI with 786-0 renal was 0.923 µM and 1.15 µM; with HOP-62 NSCLC, 1.26 µM and 1.39 µM; in the test on SN12C renal it was 1.29 µM and 1.37 µM; with UO-31 renal, 1.88 µM and 1.14 µM; in the test with RPMI-8226 leukemia, 0.795 µM and 2.43 µM; in the test on DU-145 prostate, 1.99 µM and 1.28 µM. Further, the TGI in the test on NCI-H522 lung is 0.507 µM and 0.26 µM; in the test on OVCAR-4 ovarian, 2.54 µM and 1.8 µM; in the test on MDA-MB-435, 2.51 µM and 1.99 µM.

`CC(C)c1ccc(O)c(O)c(=O)c1` (tested in a mixture with another compound): the TGI was greater than 100 µM in the test with 786-0 renal; greater than 100 µM with HOP-62 NSCLC; greater than 100 µM in the test with SN12C renal; greater than 41.2 µM in the test on UO-31 renal; 9.79 µM in the test on RPMI-8226 leukemia; 5.53 µM in the test on MOLT-4 leukemia. The TGI in the test with DU-145 prostate was 33.7 µM; in the test on NCI-H522 lung, 17.5 µM; in the test with OVCAR-4 ovarian, greater than 100 µM; in the test on MDA-MB-435 it was greater than 100 µM.

Turning to `COc1ccc(Cn2cc3c(c2-c2ccccc2)CCc2cncnc2-3)cc1`, the GI50 in the test on 786-0 renal was 10.1 µM; in the test on HOP-62 NSCLC, 12 µM; with SN12C renal, 5.85 µM; in the test with UO-31 renal it was 10.3 µM; with RPMI-8226 leukemia it was 2.69 µM; in the test on MOLT-4 leukemia, 2.81 µM. The GI50 in the test on DU-145 prostate was 14.2 µM; with NCI-H522 lung, 5.05 µM; in the test with OVCAR-4 ovarian, 10.2 µM; in the test on MDA-MB-435, 2.49 µM. Besides, the TGI worked out at 38.5 µM in the test with 786-0 renal; 31.3 µM with HOP-62 NSCLC; 20.9 µM with SN12C renal; 24.2 µM in the test on UO-31 renal; 8.62 µM with RPMI-8226 leukemia; 11.1 µM with MOLT-4 leukemia. For the same compound, the TGI with DU-145 prostate came to 33.7 µM; with NCI-H522 lung it was 21 µM; in the test on OVCAR-4 ovarian, 33.7 µM; in the test with MDA-MB-435, 11.8 µM.

As for `COc1cc2c(cc1-c1c(C)noc1C)ncc1[nH]c(=O)n([C@H](C)c3ccccn3)c12`, the GI50 in the test on 786-0 renal was 5.04 µM; with HOP-62 NSCLC it was 0.94 µM; in the test on SN12C renal, 4.48 µM; in the test with UO-31 renal, 0.119 µM; in the test with RPMI-8226 leukemia it was 0.124 µM; with MOLT-4 leukemia it was 4.08 µM. In addition, the GI50 was 17.3 µM in the test with DU-145 prostate, 0.0975 µM in the test on NCI-H522 lung, 1.94 µM with OVCAR-4 ovarian and 0.474 µM with MDA-MB-435. Moreover, the TGI in the test on 786-0 renal was greater than 100 µM; in the test with HOP-62 NSCLC, greater than 100 µM; with SN12C renal it was greater than 100 µM; in the test with UO-31 renal it was greater than 57.6 µM; in the test with RPMI-8226 leukemia, 3.54 µM; in the test with MOLT-4 leukemia it was 99.3 µM. In addition, the TGI in the test on DU-145 prostate was greater than 100 µM; in the test on NCI-H522 lung, 7.07 µM; with OVCAR-4 ovarian, greater than 100 µM; in the test with MDA-MB-435, greater than 100 µM.

Take `CC1CCC(C#N)(NOC2=NCCN2)CC1` (centres undefined): the GI50 in the test with 786-0 renal was 16.3 µM; in the test on SN12C renal it was 36.2 µM; in the test with UO-31 renal, 11.6 µM; with RPMI-8226 leukemia, 40.4 µM; in the test on MOLT-4 leukemia, 37.3 µM; with DU-145 prostate it was 39.9 µM. Also, the GI50 with NCI-H522 lung is 39.6 µM; in the test with OVCAR-4 ovarian, 47.2 µM; in the test on MDA-MB-435 it was 29.2 µM. The TGI in the test with 786-0 renal is 37.1 µM; in the test on SN12C renal it was greater than 100 µM; in the test with UO-31 renal, greater than 100 µM; in the test with RPMI-8226 leukemia, greater than 100 µM; with MOLT-4 leukemia it was greater than 100 µM; in the test with DU-145 prostate, greater than 100 µM. Also, the TGI with NCI-H522 lung, in the test on OVCAR-4 ovarian and in the test with MDA-MB-435 was greater than 100 µM each time.

`O=C(O)CCc1nc(-c2ccccc2)c(-c2ccccc2)o1`: the TGI in the test on 786-0 renal, in the test with HOP-62 NSCLC, in the test with SN12C renal, with RPMI-8226 leukemia, in the test with MOLT-4 leukemia and in the test on DU-145 prostate was greater than 100 µM throughout. The TGI with NCI-H522 lung, in the test with OVCAR-4 ovarian and with MDA-MB-435 was greater than 100 µM in each case.
